# Assay results taken from publication PMC10087458 (Chemical Biology & Drug Design, 2022).
# Entries after “also recorded” stand apart in the source; their conditions may differ. Read-outs that look alike come from different tables or passages of the source.
# Tests used:
# [1] = test system: Mycobacterium tuberculosis in a persistent state; design: method as in Barrow et al., [2003]; conditions: ref Barrow et al., [2003]; cited from earlier work
# [2] = test system: adenosine receptors in RAW264.7 cells; assay: cAMP accumulation in RAW264.7 macrophages (cAMP ELISA); assay type: cell-based, murine; conditions: for increase in cAMP compared with forskolin: 1 μM, 10 min incubation, PDE inhibitor pre-treatment, positive control forskolin 1 μM
# [3] = test system: murine macrophages RAW 264.7; assay: Resazurin cytotoxicity assay on RAW 264.7 macrophages; assay type: cell-based; conditions: Mus musculus
# [4] = test system: Mycobacterium bovis BCG (ATCC35734); assay: microbe, parasite or virus in culture; assay type: cell-based; conditions: Mycobacterium tuberculosis variant bovis BCG, read-out: MIC90 M. bovis BCG, HT-SPOTi; lowest concentration inhibiting 90% of the bacteria
# [5] = Equilibrium solubility, modified shake-flask method with HPLC quantification; assay type: physicochemical; conditions: shake-flask 24 h, HPLC 230 nm
# Protocol: The equilibrium solubility of ADN‐PEG‐conjugates was determined using a modified version of the shake‐flask method (Plöger et al., [2018]). An excess of the ADN‐PEG‐conjugate was added to either phosphate buffer solution (PBS buffer) or deuterium‐depleted water (DDW) at a pH value of 6.8. The resulting suspension was shaken at 37°C until a (thermodynamic) equilibrium was reached between saturated solution and undissolved solid. Solubility quantification of the samples was achieved using high‐pressure liquid chromatography (HPLC) analysis.
# An excess amount of the PEG-ADN conjugates was added into a 20 mL glass vial containing either phosphate buffer solution or DDW. The samples were placed into a shaking water bath at 150 rpm at 37ᵒC for 24h. The supernatant was withdrawn from the suspension using a micro centaur MSB010.CX2.5 centrifuge (MSE Ltd., London, UK) at 1.3 × 10,000 rpm for 1 min.
# [6] = test system: Mycobacterium aurum (ATCC 23366); assay: HT-SPOTi anti-mycobacterial assay, M. aurum; assay type: cell-based; conditions: Mycolicibacterium aurum
# [7] = test system: Mycobacterium bovis BCG (ATCC35734); conditions: ref Ferguson et al., [2020]; cited from earlier work
# [8] = test system: Mycobacterium aurum (ATCC 23366); design: method as in Ferguson et al., [2020]; conditions: ref Ferguson et al., [2020]; cited from earlier work
# [9] = RAW264.7, 50% inhibition of cell proliferation, resazurin micro dilution method, RAW 264.7 murine macrophages, read-out: GIC50 RAW 264.7
# [10] = aqueous buffer, thermodynamic from solid, phosphate buffer solution pH 6.8, 37°C, read-out: Solubility (mean ± SD) PBS
# [11] = pH 7, thermodynamic from solid, deuterium-depleted water (DDW), 37°C, read-out: Solubility (mean ± SD) DDW
# [12] = ATCC23366, HT-SPOTi, lowest concentration inhibiting 90% of the bacteria, read-out: MIC90 M. aurum
SMILES,increase in cAMP compared with forskolin [2],"IC50 [3, 9]",MIC90 [4],"MIC90 [6, 12]",also measured
Cc1nc(N)c2ncn([C@@H]3O[C@H](CO)[C@@H](O)[C@H]3O)c2n1 [2‐methyl adenosine],–,–,–,–,growth of Mycobacterium tuberculosis in a persistent state (in words) [1]: inhibited the growth
CS(=O)(=O)OCCOCCOCCOCCOCC#Cc1nc(N)c2ncn([C@@H]3O[C@H](CO)[C@@H](O)[C@H]3O)c2n1 [10b],42%,250 µg/mL,250 µg/mL,250 µg/mL,"cAMP accumulation in RAW264.7 cells (in words) [2]: significant increase; also recorded: considerable increase; solubility at 24 h [5, 10]: 1220 ± 260 µg/mL; solubility at 24 h [5, 11]: 1330 ± 320 µg/mL"
"NNC(=O)c1ccncc1 [Isoniazid, isoniazid, reference compound]",–,500 µg/mL,0.49 µg/mL,7.81 µg/mL,–
CC1(C)O[C@@H]2[C@H](O1)[C@@H](CO)O[C@H]2n1cnc2c(N)nc(C#CCOCCOCCOCCOCCOCCOS(C)(=O)=O)nc21 [11c],–,62.5 µg/mL,250 µg/mL,125 µg/mL,–
"Nc1ncnc2c1ncn2[C@@H]1O[C@H](CO)[C@@H](O)[C@H]1O [Adenosine, adenosine, reference compound]",48%,–,–,–,–
"Nc1nc(I)nc2c1ncn2[C@@H]1O[C@H](CO)[C@@H](O)[C@H]1O [compound 9, 2‐iodoadenosine, reference compound]",–,–,15.6 µg/mL,–,"bactericidal activity against M. bovis (in words) [7]: exhibited bactericidal activity; IC50 ([3]; RAW264.7, read-out: GIC50 RAW 264.7): 250 µg/mL; MIC90 ([6]; ATCC23366, read-out: MIC90 M. aurum): 125 µg/mL; bactericidal activity against M. aurum (in words) [8]: not"
CC1(C)O[C@@H]2[C@H](O1)[C@@H](COS(N)(=O)=O)O[C@H]2n1cnc2c(N)nc(C#CCOCCOCCOCCOCCOCCOS(C)(=O)=O)nc21 [12c],–,31.2 µg/mL,500 µg/mL,62.5 µg/mL,–
CS(=O)(=O)OCCOCCOCCOCCOCCOCC#Cc1nc(N)c2ncn([C@@H]3O[C@H](CO)[C@@H](O)[C@H]3O)c2n1 [10c],–,250 µg/mL,250 µg/mL,250 µg/mL,–
CC1(C)O[C@@H]2[C@H](O1)[C@@H](CO)O[C@H]2n1cnc2c(N)nc(C#CCOCCOCCOCCOCCOS(C)(=O)=O)nc21 [11b],46%,62.5 µg/mL,500 µg/mL,500 µg/mL,"cAMP accumulation in RAW264.7 cells (in words) [2]: significant increase; also recorded: considerable increase; solubility at 24 h [5, 10]: 1180 ± 190 µg/mL; solubility at 24 h [5, 11]: 1160 ± 640 µg/mL"
